Source: ChEMBL document CHEMBL4665653, “VU6005806/AZN-00016130, an advanced M positive allosteric modulator (PAM) profiled as a potential preclinical development candidate” (Bioorg Med Chem Lett, 2019)
In brackets after ≈: the same amount, converted by molar mass.

Experiments:
Rattus norvegicus [1] = organism: Rattus norvegicus; assay: Displacement of [3H]-TCP from NMDA glutamate receptor phencyclidine binding site in Wistar rat brain assessed as residual binding level for radioligand at 10 uM incubated for 45 mins by scintillation counting analysis relative to control; type: tissue-based
[2] = molecular target: Muscarinic acetylcholine receptor M3 (Rattus norvegicus, UniProt P08483); assay: Positive allosteric modulation of rat M3 receptor
Rattus norvegicus [3] = organism: Rattus norvegicus; assay: Displacement of [3H]-Flunitrazepam from Wistar rat brain GABA(A)/BzR site assessed as residual binding level for radioligand at 10 uM measured after 60 mins by scintillation counting method relative to control; type: tissue-based
[4] = Hepatic clearance in rat; type: ADME; conditions: in vivo
Rattus norvegicus [5] = assay: Reversal of amphetamine-induced hyperlocomotion in po dosed rat assessed as minimum effective dose; type: functional; conditions: read-out: MED
[6] = molecular target: Prostaglandin E2 receptor EP4 subtype (Homo sapiens) (UniProt P35408); assay: Displacement of [3H]-Prostaglandin E2 from full length recombinant human prostanoid receptor EP4 expressed in Chem-1 cells assessed as residual binding level for radioligand at 10 uM incubated for 120 mins by scintillation counting analysis relative to control; type: cell-based
[7] = Positive allosteric modulation of dog M4 receptor; parameters: species or system Canis lupus familiaris
[8] = molecular target: 5-hydroxytryptamine receptor 1A (Homo sapiens) (UniProt P08908); assay: Displacement of [3H]-8-OH-DPAT from full length recombinant human 5HT1A receptor expressed in CHO-K1 cells assessed as residual binding level for radioligand at 10 uM incubated for 60 mins by radiometric scintillation analysis relative to control; type: cell-based
[9] = molecular target: Histamine H2 receptor (Homo sapiens) (UniProt P25021); assay: Displacement of [125I]aminopotentidine full length recombinant human histamine H2 receptor expressed in CHO-K1 cells assessed as residual binding level for radioligand at 10 uM after 120 mins by scintillation counting analysis relative to control; type: cell-based
[10] = Unbound brain-to-plasma concentration ratio in cynomolgus monkey; type: ADME, Macaca fascicularis; conditions: read-out: K(p,uu,brain)
Canis lupus familiaris = organism: Canis lupus familiaris; assay: Positive allosteric modulation of dog M4 receptor relative to acetylcholine
Cytochrome P450 2C9 = Cytochrome P450 2C9 (Homo sapiens, UniProt P11712); assay: Inhibition of CYP2C9 (unknown origin); type: ADME
Cytochrome P450 1A2 = Cytochrome P450 1A2 (Homo sapiens, UniProt P05177); assay: Inhibition of CYP1A2 (unknown origin); type: ADME
[11] = molecular target: Sigma non-opioid intracellular receptor 1 (Homo sapiens) (UniProt Q99720); assay: Displacement of [3H]-(+)-pentazocine from human sigma-1 receptor in human T lymphocyte Jurkat cell membrane assessed as residual binding level for radioligand at 10 uM incubated for 120 mins by liquid scintillation counting method relative to control; type: tissue-based
[12] = molecular target: 5-hydroxytryptamine receptor 2B (Homo sapiens) (UniProt P41595); assay: Displacement of [3H]-LSD from recombinant full length human 5HT2B receptor expressed in CHO-K1 cells assessed as residual binding level for radioligand at 10 uM incubated for 60 mins by; type: cell-based
[13] = molecular target: Muscarinic acetylcholine receptor M3 (Homo sapiens, UniProt P20309); assay: Displacement of [3H]N-Methylscopolamine from full length human recombinant muscarinic M3 receptor expressed in CHOK1 cells assessed as residual binding level for radioligand at 10 uM measured after 120 mins by radiometric scintillation analysis relative to control; type: cell-based; conditions: CHO-K1
Rattus norvegicus [14] = organism: Rattus norvegicus; assay: Displacement of [3H]GABA from GABA receptor in Wistar rat brain assessed as residual binding level for radioligand at 10 uM after 20 mins by radiometric scintillation analysis relative to control; type: tissue-based
Rattus norvegicus [15] = assay: Reversal of amphetamine-induced hyperlocomotion in rat at 0.56 mg/kg, po relative to control; type: functional
[16] = molecular target: Adenosine receptor A1 (Homo sapiens) (UniProt P30542); assay: Displacement of [3H]DPCPX from recombinant full length human adenosine A1 receptor expressed in CHO-K1 cells assessed as residual binding level for radioligand at 10 uM incubated for 90 mins radiometric scintillation analysis relative to control; type: cell-based
[17] = Volume of distribution at steady state in rat; type: ADME; conditions: in vivo, read-out: Vdss
P-gp = assay: Substrate activity at human P-gp expressed in MDCK-MDR1 cells assessed as efflux ratio; type: ADME, cell-based
[18] = molecular target: Platelet-activating factor receptor (Homo sapiens) (UniProt P25105); assay: Displacement of [3H]-PAF from human PAF receptor assessed as residual binding level for radioligand at 10 uM incubated for 180 mins by scintillation counting analysis relative to control
Rattus norvegicus [19] = organism: Rattus norvegicus; assay: Displacement of [125I]-Triiodothyronine from thyroid hormone receptors in Sprague-Dawley rat liver assessed as residual binding level for radioligand at 10 uM incubated for 1080 mins by radiometric scintillation analysis relative to control; type: tissue-based
[20] = molecular target: 5-hydroxytryptamine receptor 3A (Homo sapiens) (UniProt P46098); assay: Displacement of [3H]GR-65630 from full length human recombinant 5HT3 receptor expressed in HEK293 cells assessed as residual binding level for radioligand at 10 uM measured after 60 mins by radiometric scintillation analysis relative to control; type: cell-based
[21] = Fraction unbound in rat plasma; type: ADME, cell-free
[22] = Volume of distribution at steady state in dog; type: ADME, Canis lupus familiaris; conditions: in vivo, read-out: Vdss
[23] = molecular target: Histamine H3 receptor (Homo sapiens) (UniProt Q9Y5N1); assay: Displacement of [3H]-N-alpha-Methylhistamine from full length recombinant human recombinant Histamine H3 receptor expressed in CHO-K1 cells assessed as residual binding level for radioligand at 10 uM incubated for 120 mins by scintillation counting analysis relative to control; type: cell-based
[24] = molecular target: Acetylcholine receptor subunit alpha (Homo sapiens) (UniProt P02708); assay: Displacement of [125I]-alpha-Bungarotoxin from full length nAChR alpha1 receptor in human RD cell membranes assessed as residual binding level for radioligand at 10 uM measured after 120 mins by radiometric scintillation analysis relative to control
[25] = molecular target: B2 bradykinin receptor (Homo sapiens) (UniProt P30411); assay: Displacement of [3H]bradykinin from recombinant full length human B2 receptor expressed in Chem-1 cells assessed as residual binding level for radioligand at 10 uM after 60 mins by radiometric scintillation analysis relative to control; type: cell-based
[26] = Fraction unbound in rat brain; type: ADME, tissue-based
[27] = Hepatic clearance in human; type: ADME
[28] = Oral bioavailability in rat at 3 mg/kg administered as suspension; type: ADME, organism-based; conditions: in vivo
[29] = molecular target: Cysteinyl leukotriene receptor 1 (Homo sapiens) (UniProt Q9Y271); assay: Displacement of [3H]LTD4 from full length recombinant human CysLT1 Leukotriene receptor expressed in CHO-K1 cells assessed as residual binding level for radioligand at 10 uM incubated for 30 mins radiometric scintillation analysis relative to control; type: cell-based
[30] = molecular target: D(2) dopamine receptor (Homo sapiens) (UniProt P14416); assay: Displacement of [3H]Spiperone from full length human dopamine D2S receptor expressed in CHO cells assessed as residual binding level for radioligand at 10 uM after 120 mins by radiometric scintillation analysis relative to control; type: cell-based
[31] = molecular target: Estrogen receptor (Homo sapiens) (UniProt P03372); assay: Displacement of [3H]estradiol from recombinant full length human recombinant ERalpha receptor expressed in Sf9 insect cells assessed as residual binding level for radioligand at 10 uM measured after 120 mins by radiometric scintillation analysis relative to contro
[32] = Solubility of the compound in simulated gastric fluid; type: physicochemical

Chain of 5-hydroxytryptamine receptor 2B (Homo sapiens) (P41595 whole entry): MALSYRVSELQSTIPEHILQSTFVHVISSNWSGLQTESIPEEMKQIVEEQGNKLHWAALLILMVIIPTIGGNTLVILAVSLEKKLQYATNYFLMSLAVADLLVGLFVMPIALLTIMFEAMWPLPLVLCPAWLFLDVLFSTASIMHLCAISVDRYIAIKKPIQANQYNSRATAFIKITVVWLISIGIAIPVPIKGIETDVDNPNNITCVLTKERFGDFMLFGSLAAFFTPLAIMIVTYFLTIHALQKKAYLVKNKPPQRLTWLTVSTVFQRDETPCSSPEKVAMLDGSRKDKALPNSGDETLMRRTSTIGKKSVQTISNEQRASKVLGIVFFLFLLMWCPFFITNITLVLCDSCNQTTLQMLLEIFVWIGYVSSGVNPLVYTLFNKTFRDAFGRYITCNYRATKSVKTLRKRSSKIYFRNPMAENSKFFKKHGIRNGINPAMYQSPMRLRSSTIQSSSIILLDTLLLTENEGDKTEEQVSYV
Chain of Adenosine receptor A1 (Homo sapiens) (P30542 whole entry): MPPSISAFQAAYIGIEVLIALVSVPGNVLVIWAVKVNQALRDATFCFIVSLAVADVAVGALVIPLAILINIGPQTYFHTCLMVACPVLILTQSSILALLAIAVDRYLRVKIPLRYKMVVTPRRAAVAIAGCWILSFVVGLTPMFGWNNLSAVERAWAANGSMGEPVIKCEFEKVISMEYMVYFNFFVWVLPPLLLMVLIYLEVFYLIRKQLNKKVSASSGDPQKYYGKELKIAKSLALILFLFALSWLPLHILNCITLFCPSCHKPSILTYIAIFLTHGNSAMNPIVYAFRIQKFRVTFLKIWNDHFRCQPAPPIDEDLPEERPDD
Chain of Cysteinyl leukotriene receptor 1 (Homo sapiens) (Q9Y271 whole entry): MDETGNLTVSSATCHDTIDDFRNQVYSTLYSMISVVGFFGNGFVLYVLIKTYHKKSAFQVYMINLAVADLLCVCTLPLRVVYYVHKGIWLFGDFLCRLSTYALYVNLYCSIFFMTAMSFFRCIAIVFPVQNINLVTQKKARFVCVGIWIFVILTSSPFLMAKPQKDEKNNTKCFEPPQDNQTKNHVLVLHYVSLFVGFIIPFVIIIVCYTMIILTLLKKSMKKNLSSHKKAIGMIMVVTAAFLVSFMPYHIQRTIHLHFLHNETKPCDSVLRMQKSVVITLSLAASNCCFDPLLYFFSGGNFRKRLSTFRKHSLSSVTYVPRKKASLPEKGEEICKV
Chain of D(2) dopamine receptor (Homo sapiens) (P14416 whole entry): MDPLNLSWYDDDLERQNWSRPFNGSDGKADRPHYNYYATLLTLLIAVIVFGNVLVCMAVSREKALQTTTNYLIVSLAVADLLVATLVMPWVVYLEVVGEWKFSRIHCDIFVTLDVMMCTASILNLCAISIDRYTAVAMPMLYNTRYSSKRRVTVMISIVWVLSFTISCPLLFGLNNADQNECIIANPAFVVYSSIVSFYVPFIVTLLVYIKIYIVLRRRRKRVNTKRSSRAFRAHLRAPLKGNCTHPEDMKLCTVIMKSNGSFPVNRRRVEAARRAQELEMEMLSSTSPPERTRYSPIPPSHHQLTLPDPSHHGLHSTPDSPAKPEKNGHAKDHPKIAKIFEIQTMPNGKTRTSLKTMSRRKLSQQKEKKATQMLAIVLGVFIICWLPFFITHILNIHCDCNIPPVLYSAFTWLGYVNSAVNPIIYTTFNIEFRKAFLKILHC
Chain of 5-hydroxytryptamine receptor 1A (Homo sapiens) (P08908 whole entry): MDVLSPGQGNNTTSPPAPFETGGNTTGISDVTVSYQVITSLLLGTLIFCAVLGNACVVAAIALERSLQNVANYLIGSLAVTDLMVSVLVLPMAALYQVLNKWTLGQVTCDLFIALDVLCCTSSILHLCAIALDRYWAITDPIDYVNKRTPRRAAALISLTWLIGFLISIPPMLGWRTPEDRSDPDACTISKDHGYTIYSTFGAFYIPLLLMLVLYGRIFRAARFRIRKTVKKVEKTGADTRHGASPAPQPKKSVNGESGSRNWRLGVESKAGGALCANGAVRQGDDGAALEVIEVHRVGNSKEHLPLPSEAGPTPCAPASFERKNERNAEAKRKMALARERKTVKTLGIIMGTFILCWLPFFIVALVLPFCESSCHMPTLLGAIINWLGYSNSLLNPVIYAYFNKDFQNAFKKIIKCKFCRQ
Chain of Histamine H2 receptor (Homo sapiens) (P25021 whole entry): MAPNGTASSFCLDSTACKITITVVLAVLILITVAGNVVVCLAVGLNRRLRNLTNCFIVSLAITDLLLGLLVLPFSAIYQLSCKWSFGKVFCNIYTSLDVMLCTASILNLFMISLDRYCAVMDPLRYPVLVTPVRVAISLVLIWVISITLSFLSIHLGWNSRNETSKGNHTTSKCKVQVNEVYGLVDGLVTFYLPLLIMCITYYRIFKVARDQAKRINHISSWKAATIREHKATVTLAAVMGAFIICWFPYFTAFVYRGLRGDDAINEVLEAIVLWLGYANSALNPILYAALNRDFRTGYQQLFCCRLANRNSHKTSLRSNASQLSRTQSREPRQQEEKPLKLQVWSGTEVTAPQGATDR
Chain of Sigma non-opioid intracellular receptor 1 (Homo sapiens) (Q99720 whole entry): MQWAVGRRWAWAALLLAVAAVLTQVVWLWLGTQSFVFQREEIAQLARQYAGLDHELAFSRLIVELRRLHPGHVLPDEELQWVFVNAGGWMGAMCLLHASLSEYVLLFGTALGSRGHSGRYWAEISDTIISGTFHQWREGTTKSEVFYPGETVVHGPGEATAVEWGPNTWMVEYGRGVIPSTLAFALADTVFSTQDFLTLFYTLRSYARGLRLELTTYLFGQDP
Chain of 5-hydroxytryptamine receptor 3A (Homo sapiens) (P46098 whole entry): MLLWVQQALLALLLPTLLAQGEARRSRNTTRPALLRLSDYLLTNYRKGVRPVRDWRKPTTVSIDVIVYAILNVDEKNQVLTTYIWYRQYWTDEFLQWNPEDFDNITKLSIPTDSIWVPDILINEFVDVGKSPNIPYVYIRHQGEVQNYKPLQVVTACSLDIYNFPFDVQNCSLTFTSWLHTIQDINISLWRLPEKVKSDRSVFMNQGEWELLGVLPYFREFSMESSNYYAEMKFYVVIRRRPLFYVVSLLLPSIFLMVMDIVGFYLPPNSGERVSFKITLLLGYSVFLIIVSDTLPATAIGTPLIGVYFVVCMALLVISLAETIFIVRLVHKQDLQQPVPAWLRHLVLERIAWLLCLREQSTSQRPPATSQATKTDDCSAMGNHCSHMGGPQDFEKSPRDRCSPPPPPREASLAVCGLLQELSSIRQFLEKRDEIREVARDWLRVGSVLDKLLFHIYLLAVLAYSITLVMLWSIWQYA
Chain of Cytochrome P450 2C9 (P11712 whole entry): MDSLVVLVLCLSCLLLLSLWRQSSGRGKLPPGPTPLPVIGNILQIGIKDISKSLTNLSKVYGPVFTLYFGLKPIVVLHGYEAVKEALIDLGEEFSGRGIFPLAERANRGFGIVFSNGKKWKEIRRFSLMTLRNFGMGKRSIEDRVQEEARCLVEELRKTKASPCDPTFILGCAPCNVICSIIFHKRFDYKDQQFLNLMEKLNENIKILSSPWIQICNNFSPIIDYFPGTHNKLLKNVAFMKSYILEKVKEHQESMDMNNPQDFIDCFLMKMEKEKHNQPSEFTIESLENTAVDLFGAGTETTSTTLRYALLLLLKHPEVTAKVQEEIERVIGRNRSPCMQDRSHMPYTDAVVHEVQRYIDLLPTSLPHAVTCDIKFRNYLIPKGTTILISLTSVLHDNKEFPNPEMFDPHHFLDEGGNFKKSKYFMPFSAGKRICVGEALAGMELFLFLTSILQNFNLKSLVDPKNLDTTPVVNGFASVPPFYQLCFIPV
Chain of Platelet-activating factor receptor (Homo sapiens) (P25105 whole entry): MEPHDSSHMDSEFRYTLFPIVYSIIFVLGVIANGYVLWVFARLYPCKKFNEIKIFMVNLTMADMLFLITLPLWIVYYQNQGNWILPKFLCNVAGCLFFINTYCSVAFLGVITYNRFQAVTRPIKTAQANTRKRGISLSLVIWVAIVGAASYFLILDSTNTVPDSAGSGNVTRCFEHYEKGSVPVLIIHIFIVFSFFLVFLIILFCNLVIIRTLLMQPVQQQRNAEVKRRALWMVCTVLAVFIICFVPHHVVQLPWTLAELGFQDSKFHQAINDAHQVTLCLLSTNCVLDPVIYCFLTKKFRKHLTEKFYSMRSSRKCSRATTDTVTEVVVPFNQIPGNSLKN
Chain of B2 bradykinin receptor (Homo sapiens) (P30411 whole entry): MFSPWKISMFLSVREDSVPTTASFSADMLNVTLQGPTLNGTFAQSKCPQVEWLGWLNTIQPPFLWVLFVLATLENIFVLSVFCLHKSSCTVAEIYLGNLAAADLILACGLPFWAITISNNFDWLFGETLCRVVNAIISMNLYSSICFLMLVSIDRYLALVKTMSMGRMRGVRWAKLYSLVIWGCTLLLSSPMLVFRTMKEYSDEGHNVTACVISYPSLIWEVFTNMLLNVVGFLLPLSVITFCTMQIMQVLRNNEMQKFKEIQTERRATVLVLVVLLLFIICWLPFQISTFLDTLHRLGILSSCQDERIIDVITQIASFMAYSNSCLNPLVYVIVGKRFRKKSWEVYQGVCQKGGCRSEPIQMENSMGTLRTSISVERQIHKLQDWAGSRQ
Chain of Estrogen receptor (Homo sapiens) (P03372 whole entry): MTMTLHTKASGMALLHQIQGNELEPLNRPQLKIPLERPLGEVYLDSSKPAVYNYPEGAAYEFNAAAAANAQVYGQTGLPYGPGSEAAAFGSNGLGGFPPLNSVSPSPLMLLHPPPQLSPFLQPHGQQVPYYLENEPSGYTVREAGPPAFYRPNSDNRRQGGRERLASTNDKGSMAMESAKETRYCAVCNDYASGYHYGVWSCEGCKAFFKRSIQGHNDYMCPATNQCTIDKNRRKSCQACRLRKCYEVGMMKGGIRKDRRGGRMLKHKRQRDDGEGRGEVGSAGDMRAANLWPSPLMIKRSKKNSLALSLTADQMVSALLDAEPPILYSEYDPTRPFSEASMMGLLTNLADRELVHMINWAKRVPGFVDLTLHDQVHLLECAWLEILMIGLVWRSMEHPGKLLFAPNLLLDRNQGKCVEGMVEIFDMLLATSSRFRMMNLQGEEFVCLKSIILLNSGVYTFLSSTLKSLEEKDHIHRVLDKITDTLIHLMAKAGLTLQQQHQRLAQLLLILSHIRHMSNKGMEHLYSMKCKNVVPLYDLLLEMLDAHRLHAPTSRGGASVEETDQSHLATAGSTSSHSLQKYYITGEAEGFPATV

Which Activity (Rattus norvegicus [1]) does the source give for `COc1nnc2sc(C(=O)NC3CN(c4ncc(C(F)(F)F)cn4)C3)c(N)c2c1C` here?
Its Activity is over 50%.

And the EC50 [2]?
Its EC50 is over 30 µM.

What about the Activity (Rattus norvegicus [3]) of the same compound?
Its Activity is over 50%.

What about the CLH [4] of the same compound?
Its CLH is 30.5 mL/min/kg.

And the minimal effective dose (Rattus norvegicus [5])?
The minimal effective dose was 0.56 mg/kg.

What about the Activity [6] of the same compound?
Its Activity is over 50%.

What about the EC50 [7] of the same compound?
The EC50 was 0.087 µM.

And the Activity [8]?
Its Activity is over 50%.

What about the Activity [9] of the same compound?
Its Activity is over 50%.

What about the Kp uu [10] of the same compound?
The Kp uu was 1.5.

What about the %max (Canis lupus familiaris) of the same compound?
The %max was 37%.

And the IC50 (Cytochrome P450 2C9)?
Its IC50 is over 30 µM.

And the IC50 (Cytochrome P450 1A2)?
Its IC50 is over 30 µM.

And the Activity [11]?
The Activity was over 50%.

What about the Activity [12] of the same compound?
The Activity was over 50%.

What about the Activity [13] of the same compound?
The Activity was over 50%.

And the Activity (Rattus norvegicus [14])?
The Activity was over 50%.

And the Activity (Rattus norvegicus [15])?
Its Activity is 44%.

And the Activity [16]?
The Activity was over 50%.

What about the Vd [17] of the same compound?
The Vd was 1.81 L/kg.

And the efflux ratio (P-gp)?
Its efflux ratio is 1.6.

What about the Activity [18] of the same compound?
The Activity was over 50%.

And the Activity (Rattus norvegicus [19])?
The Activity was over 50%.

What about the Activity [20] of the same compound?
The Activity was over 50%.

What about the fraction unbound [21] of the same compound?
Its fraction unbound is 0.018.

What about the Vd [22] of the same compound?
The Vd was 0.57 L/kg.

And the Activity [23]?
Its Activity is over 50%.

And the Activity [24]?
Its Activity is over 50%.

What about the Activity [25] of the same compound?
The Activity was over 50%.

And the fraction unbound [26]?
Its fraction unbound is 0.039.

What about the CLH [27] of the same compound?
The CLH was 2.52 mL/min/kg.

What about the bioavailability [28] of the same compound?
The bioavailability was 57%.

What about the Activity [29] of the same compound?
The Activity was over 50%.

And the Activity [30]?
The Activity was over 50%.

And the Activity [31]?
The Activity was over 50%.

And the solubility [32]?
Its solubility is 15 µM (≈ 6.59 µg/mL).
